Assay results published in ChEMBL document CHEMBL1126164, “SR 46559 A and related aminopyridazines are potent muscarinic agonists with no cholinergic syndrome” (Bioorg Med Chem Lett, 1992).
Where a chain is given by its changes, count along the chain named. Active and inactive are the calls of the source. The calls are words filed in the database; no cut-off is given here.

Legend:
[1] = biological target: T1, Muscarinic acetylcholine receptor M1 (Rattus norvegicus, UniProt P08482); assay: Displacement of [3H]pirenzepine from cerebral Muscarinic acetylcholine receptor M1
T1 sequence (P08482 whole entry): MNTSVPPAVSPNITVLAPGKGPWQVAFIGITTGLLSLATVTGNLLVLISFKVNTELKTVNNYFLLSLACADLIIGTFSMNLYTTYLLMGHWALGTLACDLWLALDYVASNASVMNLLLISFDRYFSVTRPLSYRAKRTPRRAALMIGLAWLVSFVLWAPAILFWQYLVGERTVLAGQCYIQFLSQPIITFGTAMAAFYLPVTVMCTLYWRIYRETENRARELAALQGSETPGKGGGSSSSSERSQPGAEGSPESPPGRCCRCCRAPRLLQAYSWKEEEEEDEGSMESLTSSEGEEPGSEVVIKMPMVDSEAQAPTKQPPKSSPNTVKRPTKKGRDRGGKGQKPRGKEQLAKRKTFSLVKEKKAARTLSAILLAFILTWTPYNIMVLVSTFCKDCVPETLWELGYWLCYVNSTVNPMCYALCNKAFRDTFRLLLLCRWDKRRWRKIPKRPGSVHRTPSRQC

Mus musculus [2] = assay: Percent inhibition of the number of pirenzepine-induced rotations in mice, on oral administration (3 mg/kg) 4 hr before the test; assay type: functional
[3] = (§1) Lethal dose in mice after oral administration; assay type: toxicity; details: mouse, in vivo
Mus musculus [4] = assay: Percent inhibition of the number of pirenzepine-induced rotations in mice, on orally administration (0.3 mg/kg) 4 hr before the test; assay type: functional
[5] = as §1; assay type: toxicity, organism-based; details: mouse, in vivo
Mus musculus [6] = assay: Percent inhibition of the number of pirenzepine-induced rotations in mice, on oral administration (3 mg/kg) 4 hr before the test; Inactive; assay type: functional, organism-based
Mus musculus [7] = assay: Percent inhibition of the number of pirenzepine-induced rotations in mice, on oral administration(0.3 mg/kg) 4 hr before the test; Inactive; assay type: functional, organism-based
Mus musculus [8] = species: Mus musculus; assay: Effective dose required to antagonize rotations induced in mice by intrastriatal injection of pirenzepine.; assay type: functional
Rattus norvegicus [9] = species: Rattus norvegicus; assay: Compound was tested for inhibitory concentration required for the K+ release of [3H]- GABA from rat striatal slices and reduced at 0.5 and 1 uM; assay type: functional
Mus musculus [10] = assay: Percent inhibition of the number of pirenzepine-induced rotations in mice, on oral administration (0.3 mg/kg) 4 hr before the test; assay type: functional
Mus musculus [11] = species: Mus musculus; assay: Effective dose required to antagonize pirenzepine-induced deficit in passive avoidance learning.; assay type: functional
Mus musculus [12] = assay: Compound was evaluated for toxicity up to 300 mg/kg; NT - No Toxicity; assay type: functional, organism-based; set-up: dose 300 mg/kg
Mus musculus [13] = species: Mus musculus; assay: Compound was tested for the ability to stimulate diacylglycerol formation antagonized by atropine.; assay type: functional, organism-based
[14] = biological target: T2, Muscarinic acetylcholine receptor M1 (Homo sapiens, UniProt P11229); assay: Compound was tested for its affinity for muscarinic M1 receptor
T2 sequence (P11229 whole entry): T1 sequence (P08482 whole entry) with V5A, S254T, S309P, K320R, G337A, V413I

Mus musculus [15] = species: Mus musculus; assay: Effective dose required to antagonize scopolamine-induced deficit in passive avoidance learning.; assay type: functional
Rattus norvegicus [16] = assay: Effective dose required to potentiate haloperidol induced catalepsy in rats (p.o.); assay type: functional; details: po

Row | Compound | IC50 [1] [nM] | also measured
1 | CCN(CC)C(C)(C)CNc1cc(C)c(-c2ccccc2O)nn1 | 240 | –
2 | c1ccc2c(c1)CCCc1cc(NCCN3CCOCC3)nnc1-2 | 370 | –
3 | CCN(CC)CCNc1nnc(-c2ccccc2)cc1C | 240 | –
4 | Cc1cc(-c2ccccc2)nnc1NCCN1CCOCC1=O | > 100000 | –
5 | c1ccc(-c2cc(-c3ccccc3)c(NCCN3CCOCC3)nn2)cc1 | 600 | –
6 | Cc1cc(NCCCN(C)C)ccc1-c1ccccc1 | 500 | –
7 | CCc1cc(-c2ccccc2)nnc1NCCN1CCOCC1 | 1600 | –
8 | O=Cc1cc(-c2ccccc2)nnc1NCCN1CCOCC1 | > 100000 | –
9 | Cc1cc(C2CCCCC2)nnc1NCCN1CCOCC1 | 6000 | –
10 | CCCc1cc(NCCN2CCOCC2)nnc1-c1ccccc1 | 1600 | –
11 | CCCc1nnc(NCC(C)(C)N(CC)CC)cc1-c1ccccc1 | 50 | –
12 | N#Cc1cc(-c2ccccc2)nnc1NCCN1CCOCC1 [BAZINAPRINE] | 60000 | –
13 | Cc1cc(NCCN(C)C)ccc1-c1ccccc1 | 140 | –
14 | CCCc1cc(NC2CCCN2CC)nnc1-c1ccccc1 (single isomer, unassigned; (-)) | 10 | –
15 | c1ccc(-c2cc(NCCN3CCOCC3)nnc2-c2ccccc2)cc1 | 170 | –
16 | Cc1cc(-c2ccc3ccccc3c2)nnc1NCCN1CCOCC1 | 7500 | –
17 | CCN(CC)C(C)(C)CNc1cc(C)c(-c2ccccc2)nn1 | 2300 | –
18 | c1ccc(-c2cc(Cc3ccc4ccccc4c3)c(NCCN3CCOCC3)nn2)cc1 | 16000 | –
19 | Cc1cc(-c2cccs2)nnc1NCCN1CCOCC1 | 4000 | –
20 | CCN(CC)C(C)(C)CNc1cc(-c2ccccc2)c(-c2ccccc2)nn1 | 40 | Inhibition (Mus musculus [2]): 113%; LD50 [3]: 250 mg/kg; Inhibition (Mus musculus [4]): 87%

Row | Compound | IC50 [1] [nM] | also measured
21 | CCN(CC)C(C)(C)CNc1cc(-c2ccccc2)c(CC(C)C)nn1 | 20 | LD50 [5]: 250 mg/kg
22 | Cc1cc(-c2ccccc2)nnc1NCCN(C)C | 230 | –
23 | CCCc1cc(NCC(C)(C)N(CC)CC)nnc1-c1ccccc1O | 130 | –
24 | c1ccc(Cc2cc(-c3ccccc3)nnc2NCCN2CCOCC2)cc1 | 4600 | –
25 | CCN1CCCC1CNc1cc(C)c(-c2ccccc2)nn1 (configuration not stated) | 260 | –
26 | CCCc1cc(NC2CCCN2CC)nnc1-c1ccccc1 (racemic) | 30 | –
27 | Cc1c(NCCN2CCOCC2)nnc(-c2ccccc2)c1C | 700 | –
28 | CCN1CCCC1CNc1cc(C)c(-c2ccccc2O)nn1 (configuration not stated) | 8 | –
29 | c1ccc(-c2ccc(NCCN3CCOCC3)nn2)cc1 | 12000 | –
30 | c1ccc2c(c1)CCCc1cc(NCCCN3CCOCC3)nnc1-2 | 2000 | –
31 | CCN1CCCC1CNc1cc(-c2ccccc2)c(C)nn1 (configuration not stated) | 20 | inhibition (Mus musculus [6]): inactive; inhibition (Mus musculus [7]): inactive
32 | CCN(CC)C(C)(C)CNc1cc(C2CC2)c(-c2ccccc2)nn1 | 400 | –
33 | CCN1CCCC1CNc1nnc(-c2ccccc2)cc1C (configuration not stated) | 800 | –
34 | CCCc1cc(NCC(C)(C)N(CC)CC)nnc1-c1ccccc1 | 110 | ED50 (Mus musculus [8]): 0.12 mg/kg; IC50 (Rattus norvegicus [9]): 10000 nM; Inhibition (Mus musculus [10]): 51%; Inhibition (Mus musculus [2]): 78%; ED50 (Mus musculus [11]): 0.027 mg/kg; Activity (Mus musculus [12]): inactive; IC50 (Mus musculus [13]): 50000 nM; Ki [14]: 112 nM; ED50 (Mus musculus [15]): 0.25 mg/kg; ED50 (Rattus norvegicus [16]): 0.1 mg/kg
35 | CCN(CC)C(C)(C)CNc1cc(-c2ccccc2)c(C)nn1 | 180 | Inhibition (Mus musculus [10]): 65%; Inhibition (Mus musculus [2]): 85%
36 | Cc1cc(-c2ccccc2)nnc1NCCN1CCC(O)CC1 | > 100000 | –
37 | CCCc1cc(NC2CCCN2CC)nnc1-c1ccccc1 (single isomer, unassigned; (+)) | 60 | –
38 | O=C(O)c1cc(-c2ccccc2)nnc1NCCN1CCOCC1 | > 100000 | –
39 | Cc1cc(-c2ccccc2)nnc1NCCN1CCOCC1 [MINAPRINE] | 17000 | –
